# PubChem BioAssay AID1996
# Details: buffer; pH 7.4; 200.0 µM
row,Structure (SMILES),solubility kinetic
1,NC(=O)CC1C(=O)N(c2ccccc2)C(=S)N1NC(=O)c1ccccc1 (stereo not drawn),> 55.3 µg/mL
2,N/C(=N\O)c1ccccc1N1CCCCC1,29.9 µg/mL
3,O=S(=O)(c1ccccc1)c1nc(-c2ccccc2)oc1N1CCCC1,1.3 µg/mL
4,CCCN1CCN(c2ccc(S(N)(=O)=O)cc2[N+](=O)[O-])CC1,32.9 µg/mL
5,O=c1cc(-c2ccccc2)c2cc(Cl)ccc2[nH]1,< 0.5 µg/mL
6,O=C(Nc1ccccc1)N1CCCN(c2c(Cl)cncc2Cl)CC1,10.9 µg/mL
7,O=[N+]([O-])c1cccc2cn[nH]c12,> 24.5 µg/mL
8,Cc1ccc(OCCC(=O)Nc2ccc3c(c2)OCO3)cc1,14.8 µg/mL
9,CC(C)c1ccc(C(=O)NC(=S)Nc2ccc3[nH]c(=O)[nH]c3c2)cc1,0.5 µg/mL
10,CN(C(=O)COC(=O)c1cc(=O)[nH]c2ccccc12)c1ccccc1,11.6 µg/mL
11,Cc1ccccc1SCC(=O)OCC(=O)N1CC(=O)Nc2ccccc21,11.6 µg/mL
12,Cc1cccc(NS(=O)(=O)c2ccc3[nH]c(=O)oc3c2)c1C,41.9 µg/mL
13,CN1CCC(OC(=O)c2ccco2)CC1.Cl,> 36.9 µg/mL
14,COc1ccc(NC(=S)NCCCN2CCCC2)cc1Cl,> 49.2 µg/mL
15,Cn1c(=O)c(C(=O)NCCc2ccccc2)c(O)c2ccccc21,0.5 µg/mL
16,O=C(O)c1ccc2c(=O)n3c(nc2c1)/C(=C/c1cccc(O)c1)CC3,> 50.1 µg/mL
17,Cn1c(=O)c(C(N)=S)cn(-c2ccccc2)c1=O,25.5 µg/mL
18,CCc1cccc(NC(=O)CC2SC(N3CCCC3)=NC2=O)c1 (stereo not drawn),> 49.7 µg/mL
19,Cc1cc(=O)cc(C)n1-c1ccccc1Br,39.8 µg/mL
20,CCOc1ccc(NC(=O)CN2C(=O)NC3(CCCCCC3)C2=O)cc1,> 53.9 µg/mL
21,N#CCOC(=O)c1c2c(nc3ccccc13)CCC2,30.1 µg/mL
22,COc1ccccc1CCn1cc(C#N)c(=O)[nH]c1=O,> 40.7 µg/mL
23,CC1(C)C(=O)Nc2ccccc2N1C(=O)c1ccc([N+](=O)[O-])cc1,2.3 µg/mL
24,CCNC(=O)C(C)NC(=O)C1=NN(c2ccccc2)C(=O)CC1 (stereo not drawn),> 47.5 µg/mL

row,Structure (SMILES),solubility kinetic
1,COc1ccccc1C(=O)Nc1onc(C)c1C#N,> 38.6 µg/mL
2,CC(C)[C@H](NC(=O)c1ccccc1)C(=O)NC1=NCCS1,44.6 µg/mL
3,COc1cc(/C=C/C(=O)OCC(=O)Nc2ccc3c(c2)OCO3)ccc1O,15.5 µg/mL
4,Cc1ccc(OC(C)C(=O)N2CC(=O)Nc3ccccc32)c(C)c1 (stereo not drawn),3 µg/mL
5,COc1cc(C#N)c(N=C(SCC#N)N2CCOCC2)cc1OC,> 52 µg/mL
6,CC1CCC2C(C1)Nc1c(C(=O)O)cccc1C2(C)C (stereo not drawn),> 41 µg/mL
7,CCCNC(=O)CSc1nc(Cc2ccccc2)nc2ccccc12,8.2 µg/mL
8,CCOc1ccccc1NS(=O)(=O)c1cn(C)c(=O)n(C)c1=O,34.4 µg/mL
9,CN(Cc1nc2ccccc2[nH]1)Cc1nc(CC2CC2)no1,> 44.6 µg/mL
10,O=C1NCCCCC1NS(=O)(=O)c1ccc(F)c(F)c1 (stereo not drawn),43.1 µg/mL
11,C=C(c1ccccc1C)[n+]1ccccc1,22.1 µg/mL
12,COc1ccc(S(=O)(=O)NCc2c(-c3ccccc3)noc2C)c(OC)c1,4.4 µg/mL
13,CCOC(=O)c1cc(COc2cc(Cl)cc(Cl)c2)on1,< 0.7 µg/mL
14,CN(C(=O)/C=C/c1ccco1)c1ccccc1C(=O)O,> 40.7 µg/mL
15,Cn1cc(S(=O)(=O)NCC2CCCO2)c(=O)n(C)c1=O (stereo not drawn),> 45.5 µg/mL
16,COc1cc(SC)ccc1C(=O)Nc1ccc(C)cc1,1.6 µg/mL
17,CC1CCCCC12NC(=O)N(CC(=O)NCc1ccco1)C2=O (stereo not drawn),> 47.9 µg/mL
18,O=C(CCC1CCN(Cc2ccc(Cl)cc2)CC1)NC1CC1,41.3 µg/mL
19,CC1(C)OC(=O)C(=NNc2ccccc2C(=O)O)C(=O)O1,> 43.8 µg/mL
20,Cl.O=c1cc[nH]c2c1ccc1c(=O)cc[nH]c12,34.6 µg/mL
21,CCOc1ccc(-c2cnc3ccccc3n2)cc1,0.8 µg/mL
22,CCOC(=O)CN1C(=O)C2(OCCCO2)c2cc(Br)ccc21,31.5 µg/mL
23,COc1ccc2oc(=O)c(C(=O)NC(C)c3ccccc3)cc2c1 (stereo not drawn),< 0.7 µg/mL
24,Cc1ccc2c(CN(C)Cc3cccc(F)c3)cc(=O)oc2c1C,2.9 µg/mL

row,Structure (SMILES),solubility kinetic
1,O=S(=O)(c1cccs1)N1CCN(c2ccccc2)CC1,1.4 µg/mL
2,CN1CCC(N(C)C(=O)NC2CCCCC2)CC1,> 38 µg/mL
3,Cn1c(N)c(C(=O)COC(=O)c2ccc(F)cc2Cl)c(=O)n(C)c1=O,4.5 µg/mL
4,CC(=O)Nc1ccc(S(=O)(=O)NCC(=O)OCC(=O)NCc2ccc3c(c2)OCO3)cc1,> 69.5 µg/mL
5,COC(=O)c1cc(COC(=O)CNC(=O)c2ccc(Br)cc2)oc1C,6.8 µg/mL
6,CCCCCc1nnc(NC(=O)c2ccc(=O)n(C)n2)s1,> 46.1 µg/mL
7,Nc1nc(NCc2ccco2)nc(N2CCCC2)c1[N+](=O)[O-],> 45.6 µg/mL
8,O=C(CN1CCC(NC(=O)C2CCCCC2)CC1)Nc1cccc(F)c1,18.4 µg/mL
9,O=c1c2ccccc2nc(Cc2ccccc2)n1-c1ccccc1,39.5 µg/mL
10,O=C(CCC(=O)c1cccs1)NCc1cccc(Cl)c1,> 46.2 µg/mL
11,COc1ccc(Nc2nc(OC)nc(N3CCOCC3)n2)cc1,21.8 µg/mL
12,COc1ccc(C)cc1NC(=S)N1CCOCC1,> 40 µg/mL
13,CN1CCc2cccc3c2[C@@H]1Cc1ccc(O)c(O)c1-3.Cl,12.5 µg/mL
14,Cn1cc(C(C[N+](=O)[O-])c2ccccc2)c2ccccc21 (stereo not drawn),2.6 µg/mL
15,COc1ccc(OCC(=O)Nc2ccc3c(c2)OCO3)cc1,42.3 µg/mL
16,NCCc1c(C(=O)O)[nH]c2ccc([N+](=O)[O-])cc12,35.4 µg/mL
17,COn1c(-c2ccc(Cl)cc2)nc2ncccc21,> 39 µg/mL
18,COC(=O)c1c(C)nc(C)c(C(=O)OC)c1-c1ccc(OC)cc1,> 49.4 µg/mL
19,CC(C)C(NC(=O)CCN1C(=O)c2ccccc2C1=O)c1ccccc1 (stereo not drawn),18.3 µg/mL
20,Cc1c(C=O)c2ccccn2c1C(=O)c1ccc(Cl)c([N+](=O)[O-])c1,1.6 µg/mL
21,CCOC(=O)c1c(-c2ccc(C)o2)csc1NC(=O)CN1CCC(C(N)=O)CC1,31 µg/mL
22,CC1(C)C2CCC1(C)C(OC(=O)C[n+]1ccccc1)C2.[Cl-] (stereo not drawn),39 µg/mL
23,CC(=O)C1=C(c2ccccc2)NC(=O)NC1c1ccccc1 (stereo not drawn),> 43.9 µg/mL
24,COc1ccc(S(=O)(=O)N2CCCCC2)cc1NS(=O)(=O)c1ccccc1,4.3 µg/mL

row,Structure (SMILES),solubility kinetic
1,Cc1cccc(N2CCN(CC(=O)NCc3ccc(Cl)cc3)CC2)c1C,1.6 µg/mL
2,CCOC(=O)CC(NC(=O)c1cccs1)c1ccc(C)cc1 (stereo not drawn),> 47.6 µg/mL
3,Cc1ccccc1NC(=O)Cn1c(=O)oc2ccccc21,14.4 µg/mL
4,CCn1c(/C=C/c2ccc(O)cc2)nc2ccccc2c1=O,2.8 µg/mL
5,COc1ccccc1NC(=O)COC(=O)c1oc2ccccc2c1C,6 µg/mL
6,COCCNC(=S)Nc1ccccn1,> 31.7 µg/mL
7,Cc1ccc(CN2CCN(C3CCOCC3)CC2CCO)cc1 (stereo not drawn),> 47.8 µg/mL
8,CC1CN(C(=S)Nc2cccc(Cl)c2)CC(C)O1 (stereo not drawn),> 42.7 µg/mL
9,COc1ccc(NC(=O)c2cc(-c3ccc(C)cc3)on2)cc1,< 0.3 µg/mL
10,CC(=O)Nc1ccc(OC(=O)N2CCCC2)cc1,> 37.2 µg/mL
11,CC(C(=O)C12CC3CC(CC(C3)C1)C2)N1CCOCC1.Cl (stereo not drawn),> 47.1 µg/mL
12,COc1ccc(NC(=O)Cc2ccc(Cl)cc2Cl)cn1,33.8 µg/mL
13,CC(C)(C)NCC(O)COc1cccc2c1CC(O)C(O)C2 (stereo not drawn),> 46.4 µg/mL
14,COc1ccccc1Nc1c2c(nc3ccccc13)CCC2,37.4 µg/mL
15,CN(C(=O)CSc1nnc(C2CC2)n1C1CC1)C1(C#N)CCCCC1,> 53.9 µg/mL
16,CN(c1ccc(O)cc1)c1nc(-c2cccnc2)cs1,3.2 µg/mL
17,COC(=O)c1cccc(NC(=O)CCc2c(C)noc2C)c1,> 45.3 µg/mL
18,CC(C(=O)Nc1ccc(C#N)cc1)N1CCN(C(=O)C2CC2)CC1 (stereo not drawn),> 49 µg/mL
19,COc1ccc(CCNC(=O)COC(=O)/C=C/c2ccc3c(c2)OCO3)cc1OC,12.7 µg/mL
20,Cn1cc(S(=O)(=O)N2CCCC2)cc1C(=O)O,> 38.7 µg/mL
21,O=[N+]([O-])c1c(NCCCO)cc(N2CCCCCC2)c2nonc12,28.6 µg/mL
22,CN1C(=O)C(c2ccc([N+](=O)[O-])cc2[N+](=O)[O-])C(=O)N(C)C1=O,> 48.3 µg/mL
23,Cc1cc2c(Nc3ccccc3)ncnc2s1.Cl,13 µg/mL
24,CCCNC(=O)Nc1nc2ccccc2s1,34 µg/mL

row,Structure (SMILES),solubility kinetic
1,Cc1cccc(NC(=O)CSc2cccc[n+]2[O-])c1C,39.7 µg/mL
2,CCN(CC)C(=O)c1ccc(NC(=O)COc2ccccc2F)cc1,> 51.7 µg/mL
3,O=C(Nc1ccc(N2CCOCC2)c(S(=O)(=O)Nc2ccccc2Cl)c1)c1ccc(F)cc1,1 µg/mL
4,Br.Clc1ccccc1CNCC1CCCO1 (stereo not drawn),41 µg/mL
5,CC(=O)N1CCN(S(=O)(=O)c2cccc(C(=O)OCC(=O)N(Cc3ccccc3)C(C)(C)C)c2)CC1,60.5 µg/mL
6,COc1ccc(-n2c(C)nnc2SCC(=O)NC2CC2)cc1,> 47.8 µg/mL
7,NC1=NC(=O)C(Cc2ccc(OC(F)(F)F)cc2)S1 (stereo not drawn),> 43.5 µg/mL
8,COc1ccc(OCCCC(=O)Nc2nccs2)cc1,> 43.9 µg/mL
9,CCOC(=O)c1sc(NC(=O)C2CC(=O)N(c3ccc(C)cc3)C2)nc1C (stereo not drawn),13 µg/mL
10,CN1C(=O)NC(=O)/C(=C/c2ccc([N+](=O)[O-])o2)C1=O,> 39.8 µg/mL
11,CNn1cnc2ccsc2c1=O,> 27.2 µg/mL
12,CC(NC(=O)C(Cc1ccccc1)n1cccc1)c1ccccc1 (stereo not drawn),11.6 µg/mL
13,COc1cc(OC)cc(N2C(=O)CSCC2=O)c1,> 40.1 µg/mL
14,CCOc1ccc(S(=O)(=O)N2CCN(C(=O)COc3ccc(Br)cc3)CC2)cc1,2.3 µg/mL
15,CC1CCN(C(=O)c2ccc3c(c2)NC(=O)CN3)CC1,> 41 µg/mL
16,Cc1ccc2oc(C(=O)N(C)Cc3cnccn3)c(C)c2c1,> 44.3 µg/mL
17,COc1ccccc1N1CCN(C(=O)c2cc(S(=O)(=O)N3CCCCC3)ccc2C)CC1.Cl,68.1 µg/mL
18,O=C(N/C(=C/c1ccc(F)cc1)C(=O)N1CCCC1)c1ccccc1,> 50.8 µg/mL
19,Cc1ccc(S(=O)(=O)N2CC3CCCC2C3)cc1 (stereo not drawn),34.9 µg/mL
20,Cc1cnc(NC(=O)c2cccs2)s1,28.1 µg/mL
21,O=S(=O)(c1ccc(F)cc1)N1CCc2ccccc21,18.9 µg/mL
22,Cc1c(C(=O)NC2CCC(C)CC2)oc2ccccc12 (stereo not drawn),0.7 µg/mL
